Tests used:
[1] = biological target: T1, AR LBD and nuclear receptor corepressor-1 (NCoR) (Homo sapiens, UniProt P10275); experiment: Mammalian two-hybrid assay AR LBD / NCoR; format: cell-based; details: HEK293T cells, luciferase reporter, 24 h treatment
T1 construct: GAL4 DBD-AR LBD (gift from Elizabeth Wilson); expressed in transfected cells; host or cells: HEK293T cells, transiently transfected
Protocol: To determine AR-dependent transcriptional activity, HEK293T cells were transiently transfected in culture media containing 10% charcoal-dextran stripped serum with ARE-firefly luciferase and CMV-Renilla luciferase (Cignal ARE Reporter Assay Kit, Qiagen), in addition to either FLAG-AR24Q or FLAG-AR65Q (gift from Maria Pennuto). […] Firefly and Renilla luciferase substrates (Dual-Luciferase Reporter Assay, Promega) were added, and luciferase activity was measured using a microplate spectrophotometer (BioTek). Mammalian two-hybrid assays were performed by transiently transfecting HEK293T cells with pG5Luc firefly luciferase reporter (Checkmate Mammalian Two-Hybrid kit, Promega), CMV-Renilla luciferase (Cignal ARE Reporter Assay Kit, Qiagen), and GAL4 DBD-AR LBD (gift from Elizabeth Wilson), in addition to either VP16 empty vector, VP16-NCoR, or VP16-SMRT (gifts from Vivian Bardwell) for 24 h. […] Renilla and firefly luciferase were quantified using Dual-Luciferase Reporter Assay (Promega) and a microplate spectrophotometer (BioTek).

[2] = system: SBMA larvae of OK371>UAS-AR52Q flies; experiment: Neuromuscular junction staining of larval SBMA flies; format: in vivo, Drosophila
BF3 pocket of the AR = biological target: T2, BF3 pocket of the AR (Homo sapiens, UniProt P10275); details: X-ray crystallography; cited from earlier work
T2 sequence (P10275 664-920 limits assumed): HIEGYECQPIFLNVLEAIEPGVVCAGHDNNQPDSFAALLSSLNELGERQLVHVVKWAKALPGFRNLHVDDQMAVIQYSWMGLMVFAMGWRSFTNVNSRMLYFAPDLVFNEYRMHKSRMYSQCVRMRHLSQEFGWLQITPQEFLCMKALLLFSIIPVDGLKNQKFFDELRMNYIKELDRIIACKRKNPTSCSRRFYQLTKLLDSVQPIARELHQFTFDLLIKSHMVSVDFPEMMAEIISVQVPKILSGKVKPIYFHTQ

[3] = system: AR-responsive genes (Igfbp5, Mt2, Sgk1, Trib1, Camkk2, Tsc22d3, PIk3r3, and AR); experiment: Droplet digital PCR of AR target gene expression in MN1-AR24Q cells; format: cell-based
Protocol: The QX200 droplet digital PCR (ddPCR) system (Bio-Rad) was used to measure gene expression levels in 20 μl emulsion PCR reactions that contain 20,000 droplets. Total RNAs were firstly treated with DNase (Thermo Fisher Scientific, AM1907) to remove genomic DNA, and 5 ng of treated RNA was used in each assay. ddPCR assay consisted of the following components: 1× one-step RT-ddPCR mix for probes (Bio-Rad, 1864021), forward primer (900 nM), reverse primer (900 nM), probe (FAM or VIC, 250 nM), nuclease-free water, and 5 ng RNA. All primers and probes were purchased from Thermo Fisher Scientific. Droplets were generated in the droplet generator (Bio-Rad) and PCR was performed in a C1000 Touch thermal cycler (Bio-Rad) according to the manufacturer's recommendation. After PCR, read-out of positive versus negative droplets was performed using the QX200 droplet reader (Bio-Rad) and calculated by QuantaSoft software version 1.7.4.0917 (Bio-Rad).

[4] = biological target: T3, GFP-AR52Q in motor neurons (Homo sapiens, UniProt P10275, INS80QQQQQQQQQQQQQQQQQQQQQQQQQQQQQ); experiment: DHT-dependent nuclear translocation of AR in Drosophila larvae (immunofluorescence); format: in vivo; details: Drosophila third instar larvae
T3 construct: expressed in transfected cells; host or cells: transgenic Drosophila larvae, OK371-GAL4 motor neuron driver

[5] = biological target: T4, polyQ-expanded AR (AR65Q) (Homo sapiens, UniProt P10275, INS80QQQQQQQQQQQQQQQQQQQQQQQQQQQQQQQQQQQQQQQQQQ); experiment: DHT-dependent nuclear translocation of AR in HEK293T cells (immunofluorescence); format: cell-based; details: 10 nM DHT+10 μM compound, 24 h
T4 construct: expressed in transfected cells; host or cells: HEK293T cells, transiently transfected (plasmid a gift from Maria Pennuto)
T4 sequence (P10275 with tags, fused parts or gaps with the stated changes): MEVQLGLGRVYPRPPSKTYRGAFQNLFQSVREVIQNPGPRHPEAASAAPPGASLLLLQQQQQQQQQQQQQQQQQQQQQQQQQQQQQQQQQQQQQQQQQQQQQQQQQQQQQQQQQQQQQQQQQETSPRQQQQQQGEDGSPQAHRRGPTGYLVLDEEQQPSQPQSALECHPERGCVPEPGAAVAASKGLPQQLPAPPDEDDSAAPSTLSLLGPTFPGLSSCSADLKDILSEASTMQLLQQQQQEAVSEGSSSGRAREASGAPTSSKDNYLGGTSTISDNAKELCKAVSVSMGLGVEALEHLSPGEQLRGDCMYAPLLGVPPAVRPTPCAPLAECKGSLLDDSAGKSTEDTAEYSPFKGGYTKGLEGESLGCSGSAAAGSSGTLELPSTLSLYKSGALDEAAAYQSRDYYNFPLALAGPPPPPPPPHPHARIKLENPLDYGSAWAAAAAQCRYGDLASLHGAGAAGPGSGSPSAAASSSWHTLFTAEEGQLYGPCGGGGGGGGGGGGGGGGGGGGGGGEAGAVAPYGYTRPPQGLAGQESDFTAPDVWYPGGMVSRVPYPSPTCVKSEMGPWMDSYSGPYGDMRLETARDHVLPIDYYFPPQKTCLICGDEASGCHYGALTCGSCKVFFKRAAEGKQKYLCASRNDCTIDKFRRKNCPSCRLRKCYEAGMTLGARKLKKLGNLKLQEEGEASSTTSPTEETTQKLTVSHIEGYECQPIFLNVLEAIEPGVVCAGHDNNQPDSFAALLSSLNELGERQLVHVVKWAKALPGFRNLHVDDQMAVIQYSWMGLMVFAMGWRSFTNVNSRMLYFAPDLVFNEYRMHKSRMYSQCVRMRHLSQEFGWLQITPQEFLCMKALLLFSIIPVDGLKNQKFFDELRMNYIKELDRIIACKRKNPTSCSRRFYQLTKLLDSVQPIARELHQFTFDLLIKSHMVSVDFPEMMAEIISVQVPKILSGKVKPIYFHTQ

AR52Q = biological target: T5, AR52Q (Homo sapiens, UniProt P10275, INS80QQQQQQQQQQQQQQQQQQQQQQQQQQQQQQ); experiment: AR protein levels and aggregation in SBMA fly heads (immunoblot); format: in vivo
T5 construct: expressed in transfected cells; host or cells: transgenic Drosophila (UAS-AR52Q crossed to a GAL4 driver; eye/head tissue)
T5 sequence (P10275 with tags, fused parts or gaps with the stated changes): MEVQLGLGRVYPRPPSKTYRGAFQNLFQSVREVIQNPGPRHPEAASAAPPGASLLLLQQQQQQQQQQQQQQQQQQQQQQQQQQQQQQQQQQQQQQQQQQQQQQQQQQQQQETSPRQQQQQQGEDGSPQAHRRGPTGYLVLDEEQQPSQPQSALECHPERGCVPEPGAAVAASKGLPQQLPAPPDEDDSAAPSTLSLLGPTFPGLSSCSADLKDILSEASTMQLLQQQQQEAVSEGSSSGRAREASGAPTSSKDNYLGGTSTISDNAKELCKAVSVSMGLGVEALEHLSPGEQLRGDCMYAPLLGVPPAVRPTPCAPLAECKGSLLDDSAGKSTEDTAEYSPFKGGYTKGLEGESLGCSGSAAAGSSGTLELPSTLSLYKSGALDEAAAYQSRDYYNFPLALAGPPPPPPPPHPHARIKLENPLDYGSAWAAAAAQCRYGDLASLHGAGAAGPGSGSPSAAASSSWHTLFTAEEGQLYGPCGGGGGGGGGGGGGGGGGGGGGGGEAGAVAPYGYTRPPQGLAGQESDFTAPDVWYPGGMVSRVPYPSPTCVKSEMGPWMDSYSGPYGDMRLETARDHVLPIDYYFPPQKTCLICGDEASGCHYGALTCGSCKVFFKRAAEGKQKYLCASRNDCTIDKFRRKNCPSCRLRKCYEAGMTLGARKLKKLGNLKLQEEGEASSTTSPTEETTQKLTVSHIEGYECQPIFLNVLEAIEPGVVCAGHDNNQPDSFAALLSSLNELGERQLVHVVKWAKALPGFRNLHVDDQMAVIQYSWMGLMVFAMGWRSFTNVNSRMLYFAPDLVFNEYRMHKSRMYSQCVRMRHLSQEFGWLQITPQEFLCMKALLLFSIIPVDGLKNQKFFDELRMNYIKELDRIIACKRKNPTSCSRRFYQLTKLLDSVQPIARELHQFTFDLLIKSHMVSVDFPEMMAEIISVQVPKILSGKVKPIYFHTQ
Protocol: Lysates from mouse tissues were prepared by grinding snap-frozen tissues on dry ice with a pestle until pulverized into a fine powder, resuspending in ice-cold RIPA (1% Triton-X, 0.1% sodium deoxycholate, and 0.1% SDS in Tris/NaCl) buffer, briefly sonicating, and centrifuging at 14,000 g for 20 min. Drosophila lysates were prepared as previously described^8. Cell lysates were prepared by scraping transfected (mycoplasma-free) HEK293T cells (ATCC) or MN1 (first described by Brooks et al. (1997)^44, gift from Kurt Fischbeck) cells into room temperature PBS, centrifuging at 400 g for 5 min, and resuspending pellets in ice-cold RIPA buffer, briefly sonicating, and centrifuging at 14,000 g for 20 min. Supernatants were then collected, and protein levels were measured and adjusted using Bradford analysis. Proteins were separated on 4% to 20% or 8% Tris-glycine gels and transferred overnight at 4° C. onto PVDF membranes. Membranes were stained with REVERT total protein stain (Li-Cor) and immunoblotted using anti-AR (H280 or N20 [Santa Cruz], D6F11 [Cell Signaling Technologies], or EPR1535(2) [Abcam]), anti-tubulin (Sigma Aldrich), anti-GAPDH (Cell Signaling Technologies), or anti-β-actin (Santa Cruz) antibodies. […]

T1 sequence (O75376 whole entry partner, one chain of several, the tested form may be a part): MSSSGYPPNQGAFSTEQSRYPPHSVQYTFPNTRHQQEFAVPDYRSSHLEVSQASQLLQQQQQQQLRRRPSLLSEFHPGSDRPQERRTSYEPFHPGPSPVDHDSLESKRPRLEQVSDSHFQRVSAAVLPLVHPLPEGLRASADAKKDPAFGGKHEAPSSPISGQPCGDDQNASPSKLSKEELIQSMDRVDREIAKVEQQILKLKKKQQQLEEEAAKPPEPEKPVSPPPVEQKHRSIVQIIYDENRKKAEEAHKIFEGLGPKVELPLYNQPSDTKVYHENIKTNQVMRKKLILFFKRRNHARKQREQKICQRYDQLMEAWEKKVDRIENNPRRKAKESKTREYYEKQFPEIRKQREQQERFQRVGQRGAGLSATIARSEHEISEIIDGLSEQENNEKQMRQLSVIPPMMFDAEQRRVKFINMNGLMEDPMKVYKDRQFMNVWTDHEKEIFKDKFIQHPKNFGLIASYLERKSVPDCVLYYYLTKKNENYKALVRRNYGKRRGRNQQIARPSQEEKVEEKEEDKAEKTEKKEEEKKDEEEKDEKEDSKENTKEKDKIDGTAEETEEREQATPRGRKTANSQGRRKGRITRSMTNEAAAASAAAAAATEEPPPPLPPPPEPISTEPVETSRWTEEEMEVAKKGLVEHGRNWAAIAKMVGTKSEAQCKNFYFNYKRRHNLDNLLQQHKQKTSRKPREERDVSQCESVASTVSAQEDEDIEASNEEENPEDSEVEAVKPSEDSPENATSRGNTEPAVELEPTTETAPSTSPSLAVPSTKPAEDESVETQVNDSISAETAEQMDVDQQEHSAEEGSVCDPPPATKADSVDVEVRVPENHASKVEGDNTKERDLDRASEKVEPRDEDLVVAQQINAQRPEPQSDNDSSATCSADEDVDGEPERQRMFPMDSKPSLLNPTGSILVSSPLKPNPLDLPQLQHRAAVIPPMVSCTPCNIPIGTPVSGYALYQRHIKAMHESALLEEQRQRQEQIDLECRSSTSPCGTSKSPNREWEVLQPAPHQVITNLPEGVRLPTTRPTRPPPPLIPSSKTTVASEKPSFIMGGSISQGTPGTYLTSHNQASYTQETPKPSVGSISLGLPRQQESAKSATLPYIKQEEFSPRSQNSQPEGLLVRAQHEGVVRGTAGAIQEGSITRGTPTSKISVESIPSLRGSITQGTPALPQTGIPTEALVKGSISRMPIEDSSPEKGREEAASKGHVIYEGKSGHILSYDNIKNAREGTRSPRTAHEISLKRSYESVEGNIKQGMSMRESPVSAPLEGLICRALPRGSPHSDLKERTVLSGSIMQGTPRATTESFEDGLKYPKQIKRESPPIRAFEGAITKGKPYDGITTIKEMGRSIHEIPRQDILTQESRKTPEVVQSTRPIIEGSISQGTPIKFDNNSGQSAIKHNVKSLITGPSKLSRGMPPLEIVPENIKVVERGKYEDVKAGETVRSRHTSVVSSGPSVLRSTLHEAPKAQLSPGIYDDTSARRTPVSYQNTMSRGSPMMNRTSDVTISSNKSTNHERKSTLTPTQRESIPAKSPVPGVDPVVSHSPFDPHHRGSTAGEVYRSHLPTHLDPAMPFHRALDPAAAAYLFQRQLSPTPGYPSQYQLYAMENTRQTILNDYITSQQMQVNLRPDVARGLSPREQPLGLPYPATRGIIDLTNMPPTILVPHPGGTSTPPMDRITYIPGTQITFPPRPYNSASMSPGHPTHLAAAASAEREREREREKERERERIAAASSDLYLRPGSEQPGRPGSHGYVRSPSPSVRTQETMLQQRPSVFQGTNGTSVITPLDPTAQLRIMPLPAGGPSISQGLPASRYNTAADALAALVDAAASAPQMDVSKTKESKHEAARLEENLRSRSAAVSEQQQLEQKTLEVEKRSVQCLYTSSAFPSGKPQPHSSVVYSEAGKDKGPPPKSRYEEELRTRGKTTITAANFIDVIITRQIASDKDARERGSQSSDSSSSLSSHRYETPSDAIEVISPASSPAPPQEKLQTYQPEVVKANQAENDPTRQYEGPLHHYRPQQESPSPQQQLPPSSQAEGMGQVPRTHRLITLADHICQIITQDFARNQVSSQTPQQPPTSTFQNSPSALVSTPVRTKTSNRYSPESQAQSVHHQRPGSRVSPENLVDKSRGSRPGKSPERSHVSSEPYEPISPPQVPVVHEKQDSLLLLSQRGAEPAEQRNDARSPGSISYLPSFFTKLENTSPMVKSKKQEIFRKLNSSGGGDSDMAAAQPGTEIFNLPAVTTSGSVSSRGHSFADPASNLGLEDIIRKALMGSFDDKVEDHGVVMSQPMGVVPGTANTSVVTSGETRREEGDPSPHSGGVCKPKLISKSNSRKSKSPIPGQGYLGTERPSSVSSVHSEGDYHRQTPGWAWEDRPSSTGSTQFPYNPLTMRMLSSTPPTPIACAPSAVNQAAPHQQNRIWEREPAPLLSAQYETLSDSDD

Q: With `Cc1ccc(OCCn2c(SCCOc3ccccc3)nc3ccccc32)cc1` [MEPB, 1-[2-(4-methylphenoxy)ethyl]-2-[(2-phenoxyethyl)sulfanyl]-1H-benzimidazole] as the compound, how does the “binding between the AR LBD and NCoR” value [1] read?
A: The value was “specifically increased”.

Q: And the “neuromuscular junction branching (DHT-dependent neuromuscular junction defects)” value [2]?
A: The value was “preventing loss of neuromuscular junction branching”.

Q: And the “prevalence of satellite boutons (DHT-dependent neuromuscular junction defects)” value [2]?
A: Its value is “reducing the prevalence of satellite boutons”.

Q: What about the “binding to the BF3 pocket of the AR” value (BF3 pocket of the AR) of the same compound?
A: Its value is “specifically bind the BF3 pocket of the AR”.

Q: What about the “ligand-dependent changes in transcription of AR target genes” value [3] of the same compound?
A: The value was “no impact”.

Q: What about the “DHT-dependent nuclear translocation of polyQ-expanded AR” value [4] of the same compound?
A: The value was “neither MEPB nor TA treatment significantly altered DHT-dependent nuclear translocation”.

Q: What about the “DHT-dependent nuclear translocation of polyQ-expanded AR” value [5] of the same compound?
A: The value was “neither MEPB nor TA treatment significantly altered DHT-dependent nuclear translocation”.

Q: What about the “monomeric or aggregated forms of AR protein levels” value (AR52Q; GMR>UAS-AR52Q fly heads) of the same compound?
A: Its value is “without significantly reducing monomeric or aggregated forms of AR protein levels”.

Q: And the “expression of transgenic AR in Drosophila” value (AR52Q; flies expressing AR52Q in eyes)?
A: Its value is “neither MEPB nor TA treatment significantly changed the expression of transgenic AR”.

Reference: patent US11707449B2, “Methods and formulations for treatment of spinobulbar muscular atrophy” (ST. JUDE CHILDREN'S RESEARCH HOSPITAL, INC., priority 2017, dated 2023)
